{
  "source": "patent US20260027125A1",
  "about": "“AN ANTIBACTERIAL PARENTERAL FORMULATION AND METHODS THEREOF” (BUGWORKS RESEARCH INDIA PVT. LTD., priority 2022, published 2026)",
  "key": {"[1]": {"test_system": "Burkholderia cepacia species", "experiment": "microbe, parasite or virus in culture", "type": "cell-based"}, "Legionella pneumophila": {"test_system": "Legionella pneumophila", "experiment": "microbe, parasite or virus in culture", "type": "cell-based"}, "Escherichia coli": {"test_system": "Escherichia coli", "experiment": "microbe, parasite or virus in culture", "type": "cell-based"}, "Klebsiella pneumoniae": {"test_system": "Klebsiella pneumoniae", "experiment": "microbe, parasite or virus in culture", "type": "cell-based"}, "[2]": {"experiment": "Photostability study (ICH-Q1B)", "type": "physicochemical", "conditions": "ICH-Q1B illumination"}, "[3]": {"test_system": "Prevotella sp. (anaerobe)", "experiment": "microbe, parasite or virus in culture", "type": "cell-based"}, "Morganella morgannii": {"test_system": "Morganella morgannii", "experiment": "microbe, parasite or virus in culture", "type": "cell-based"}, "Campylobacter sp.": {"test_system": "Campylobacter sp.", "experiment": "microbe, parasite or virus in culture", "type": "cell-based"}, "[4]": {"test_system": "Fusobacterium spp. (anaerobe)", "experiment": "microbe, parasite or virus in culture", "type": "cell-based"}, "[5]": {"test_system": "Mycoplasma species (atypical)", "experiment": "microbe, parasite or virus in culture", "type": "cell-based"}, "Serratia marcescens": {"test_system": "Serratia marcescens", "experiment": "microbe, parasite or virus in culture", "type": "cell-based"}, "Shigella sp.": {"test_system": "Shigella sp.", "experiment": "microbe, parasite or virus in culture", "type": "cell-based"}, "Streptococcus pneumoniae": {"test_system": "Streptococcus pneumoniae", "experiment": "microbe, parasite or virus in culture", "type": "cell-based"}, "[6]": {"test_system": "Ureaplasma species (atypical)", "experiment": "microbe, parasite or virus in culture", "type": "cell-based"}, "[7]": {"experiment": "pH solution stability study", "type": "physicochemical", "description": "The weighed quantity of compound of Formula (I) formate salt was added to each buffers system and dissolved. Volume make up was performed with WFI. The 5 mL of sample was filled in 5 mL USP Type I Vials. Vials were stopped and sealed. These vials were kept at 25° C. for stability study. The blank buffers/placebo samples were also placed along with active samples."}, "Yersinia pestis": {"test_system": "Yersinia pestis", "experiment": "microbe, parasite or virus in culture", "type": "cell-based"}, "Moraxella catarrhalis": {"test_system": "Moraxella catarrhalis", "experiment": "microbe, parasite or virus in culture", "type": "cell-based"}, "Providencia spp.": {"test_system": "Providencia spp.", "experiment": "microbe, parasite or virus in culture", "type": "cell-based"}, "[8]": {"conditions": "Burkholderia cepacia species clinical isolates, N 75"}, "[9]": {"conditions": "Legionella pneumophila clinical isolates, N 35"}},
  "note": "Where a name gives a salt, the structure may show the parent alone.",
  "data": [
    {"smiles": "Cn1c(=O)ccc2ccc(F)c(CCNC[C@H]3CN(c4cnc5c(n4)NC(=O)CO5)C(=O)O3)c21", "note": "[compound of Formula (I) formate salt, (S)-6-(5-(((2-(7-fluoro-1-methyl-2-oxo-1,2-dihydroquinolin-8-yl)ethyl)amino)methyl)-2-oxooxazolidin-3-yl)-2H-pyrazino[2,3-b][1,4]oxazin-3(4H)-one formate]", "values": [
      {"measurement": "MIC Range, high end", "setting": "Helicobacter pylori", "result": 0.5, "unit": "µg/mL"},
      {"measurement": "MIC Range, low end", "setting": "Helicobacter pylori", "result": "≤0.015", "unit": "µg/mL"},
      {"measurement": "MIC50", "setting": "[1]; Burkholderia cepacia", "result": 0.06, "unit": "µg/mL"},
      {"measurement": "MIC90", "setting": "[1]; Burkholderia cepacia", "result": 0.5, "unit": "µg/mL"},
      {"measurement": "MIC Range, high end", "setting": "[1]; [8]", "result": 2, "unit": "µg/mL"},
      {"measurement": "MIC Range, low end", "setting": "[1]; [8]", "result": 0.03, "unit": "µg/mL"},
      {"measurement": "MIC50", "setting": "Legionella pneumophila; Legionella pneumophila", "result": "≤ 0.015", "unit": "µg/mL"},
      {"measurement": "MIC90", "setting": "Legionella pneumophila; Legionella pneumophila", "result": "≤ 0.015", "unit": "µg/mL"},
      {"measurement": "MIC Range, high end", "setting": "Legionella pneumophila; [9]", "result": "≤0.015", "unit": "µg/mL"},
      {"measurement": "MIC Range, low end", "setting": "Legionella pneumophila; [9]", "result": "≤0.015", "unit": "µg/mL"},
      {"measurement": "MIC Range, high end", "setting": "Escherichia coli", "result": 4, "unit": "µg/mL"},
      {"measurement": "MIC Range, low end", "setting": "Escherichia coli", "result": "≤0.015", "unit": "µg/mL"},
      {"measurement": "MIC50", "setting": "Escherichia coli; Escherichia coli", "result": 0.12, "unit": "µg/mL"},
      {"measurement": "MIC90", "setting": "Escherichia coli; Escherichia coli", "result": 0.5, "unit": "µg/mL"},
      {"measurement": "MIC Range, high end", "setting": "Klebsiella pneumoniae", "result": 32, "unit": "µg/mL"},
      {"measurement": "MIC Range, low end", "setting": "Klebsiella pneumoniae", "result": 0.03, "unit": "µg/mL"},
      {"measurement": "MIC50", "setting": "Klebsiella pneumoniae; Klebsiella pneumoniae", "result": 0.5, "unit": "µg/mL"},
      {"measurement": "MIC90", "setting": "Klebsiella pneumoniae; Klebsiella pneumoniae", "result": 2, "unit": "µg/mL"},
      {"measurement": "sensitivity to light", "setting": "[2]", "result": "sensitive to light"},
      {"measurement": "MIC Range, high end", "setting": "[3]", "result": 1, "unit": "µg/mL"},
      {"measurement": "MIC Range, low end", "setting": "[3]", "result": "≤0.015", "unit": "µg/mL"},
      {"measurement": "MIC50", "setting": "[3]; Prevotella", "result": "≤ 0.015", "unit": "µg/mL"},
      {"measurement": "MIC90", "setting": "[3]; Prevotella", "result": "≤ 0.015", "unit": "µg/mL"},
      {"measurement": "MIC Range, high end", "setting": "Neisseria gonorrhoea", "result": "≤0.015", "unit": "µg/mL"},
      {"measurement": "MIC Range, low end", "setting": "Neisseria gonorrhoea", "result": "≤0.015", "unit": "µg/mL"},
      {"measurement": "MIC Range, high end", "setting": "Morganella morgannii", "result": 8, "unit": "µg/mL"},
      {"measurement": "MIC Range, low end", "setting": "Morganella morgannii", "result": "≤0.015", "unit": "µg/mL"},
      {"measurement": "MIC50", "setting": "Morganella morgannii; Morganella", "result": 0.12, "unit": "µg/mL"},
      {"measurement": "MIC90", "setting": "Morganella morgannii; Morganella", "result": 0.5, "unit": "µg/mL"},
      {"measurement": "MIC Range, high end", "setting": "Campylobacter sp.", "result": 0.03, "unit": "µg/mL"},
      {"measurement": "MIC Range, low end", "setting": "Campylobacter sp.", "result": "≤0.015", "unit": "µg/mL"},
      {"measurement": "MIC50", "setting": "Campylobacter sp.; Campylobacter", "result": "≤ 0.015", "unit": "µg/mL"},
      {"measurement": "MIC90", "setting": "Campylobacter sp.; Campylobacter", "result": "≤ 0.015", "unit": "µg/mL"},
      {"measurement": "MIC Range, high end", "setting": "[4]", "result": 0.5, "unit": "µg/mL"},
      {"measurement": "MIC Range, low end", "setting": "[4]", "result": "≤0.015", "unit": "µg/mL"},
      {"measurement": "MIC50", "setting": "[4]; Fusobacterium", "result": "≤ 0.015", "unit": "µg/mL"},
      {"measurement": "MIC90", "setting": "[4]; Fusobacterium", "result": "≤ 0.015", "unit": "µg/mL"},
      {"measurement": "MIC Range, high end", "setting": "[5]", "result": "≤0.015", "unit": "µg/mL"},
      {"measurement": "MIC Range, low end", "setting": "[5]", "result": "≤0.015", "unit": "µg/mL"},
      {"measurement": "MIC50", "setting": "[5]; Mycoplasma leachii", "result": "≤ 0.015", "unit": "µg/mL"},
      {"measurement": "MIC90", "setting": "[5]; Mycoplasma leachii", "result": "≤ 0.015", "unit": "µg/mL"},
      {"measurement": "MIC Range, high end", "setting": "Serratia marcescens", "result": 32, "unit": "µg/mL"},
      {"measurement": "MIC Range, low end", "setting": "Serratia marcescens", "result": 0.03, "unit": "µg/mL"},
      {"measurement": "MIC50", "setting": "Serratia marcescens; Serratia marcescens", "result": 0.25, "unit": "µg/mL"},
      {"measurement": "MIC90", "setting": "Serratia marcescens; Serratia marcescens", "result": 1, "unit": "µg/mL"},
      {"measurement": "MIC Range, high end", "setting": "Shigella sp.", "result": 0.25, "unit": "µg/mL"},
      {"measurement": "MIC Range, low end", "setting": "Shigella sp.", "result": "≤0.015", "unit": "µg/mL"},
      {"measurement": "MIC50", "setting": "Shigella sp.; Shigella", "result": 0.03, "unit": "µg/mL"},
      {"measurement": "MIC90", "setting": "Shigella sp.; Shigella", "result": 0.06, "unit": "µg/mL"},
      {"measurement": "MIC Range, high end", "setting": "Streptococcus pneumoniae", "result": 0.06, "unit": "µg/mL"},
      {"measurement": "MIC Range, low end", "setting": "Streptococcus pneumoniae", "result": 0.03, "unit": "µg/mL"},
      {"measurement": "MIC50", "setting": "Streptococcus pneumoniae; Streptococcus pneumoniae", "result": 0.03, "unit": "µg/mL"},
      {"measurement": "MIC90", "setting": "Streptococcus pneumoniae; Streptococcus pneumoniae", "result": 0.03, "unit": "µg/mL"},
      {"measurement": "MIC Range, high end", "setting": "[6]", "result": 0.03, "unit": "µg/mL"},
      {"measurement": "MIC Range, low end", "setting": "[6]", "result": "≤0.015", "unit": "µg/mL"},
      {"measurement": "MIC50", "setting": "[6]; Ureaplasma", "result": "≤ 0.015", "unit": "µg/mL"},
      {"measurement": "MIC90", "setting": "[6]; Ureaplasma", "result": "≤ 0.015", "unit": "µg/mL"},
      {"measurement": "stability", "setting": "[7]; acid pH (<5)", "result": "very stable"},
      {"measurement": "stability", "setting": "[7]; liquid state (Solution/Suspension)", "result": "highly unstable"},
      {"measurement": "stability", "setting": "[7]; neutral to alkaline pH range (pH 5.0 to 10.0)", "result": "unstable"},
      {"measurement": "solution stability upto", "setting": "[7]; pH 3.0-pH 5.0", "result": "≤ 24", "unit": "h"},
      {"measurement": "MIC50", "setting": "Yersinia pestis", "result": "≤ 0.015", "unit": "µg/mL"},
      {"measurement": "MIC90", "setting": "Yersinia pestis", "result": "≤ 0.015", "unit": "µg/mL"},
      {"measurement": "MIC Range, high end", "setting": "Yersinia pestis; N 35 strains", "result": "≤0.015", "unit": "µg/mL"},
      {"measurement": "MIC Range, low end", "setting": "Yersinia pestis; N 35 strains", "result": "≤0.015", "unit": "µg/mL"},
      {"measurement": "MIC Range, high end", "setting": "Moraxella catarrhalis", "result": "≤0.015", "unit": "µg/mL"},
      {"measurement": "MIC Range, low end", "setting": "Moraxella catarrhalis", "result": "≤0.015", "unit": "µg/mL"},
      {"measurement": "MIC50", "setting": "Moraxella catarrhalis; Moraxella catarrhalis", "result": "≤ 0.015", "unit": "µg/mL"},
      {"measurement": "MIC90", "setting": "Moraxella catarrhalis; Moraxella catarrhalis", "result": "≤ 0.015", "unit": "µg/mL"},
      {"measurement": "MIC Range, high end", "setting": "Providencia spp.", "result": 32, "unit": "µg/mL"},
      {"measurement": "MIC Range, low end", "setting": "Providencia spp.", "result": 0.06, "unit": "µg/mL"},
      {"measurement": "MIC50", "setting": "Providencia spp.; Providencia", "result": 0.5, "unit": "µg/mL"},
      {"measurement": "MIC90", "setting": "Providencia spp.; Providencia", "result": 2, "unit": "µg/mL"}
    ]}
  ]
}
